Laboratory results: US10532066B2, “Surfactant lipids, compositions thereof, and uses thereof” (National Jewish Health, priority 2007, dated 2020)
Entries after “also recorded” stand apart in the source; their conditions may differ.

What was measured:
CD14 binding to LPS = biological target: T1, CD14 binding to LPS (Homo sapiens, UniProt P08571); experiment: Phospholipid competition for CD14 binding to solid phase LPS; conditions: CD14 1 μg/ml, liposomes 20 μg/ml
T1 construct: purchased Cell Sciences Inc. (Canton, Mass.)
T1 sequence (P08571 20-345): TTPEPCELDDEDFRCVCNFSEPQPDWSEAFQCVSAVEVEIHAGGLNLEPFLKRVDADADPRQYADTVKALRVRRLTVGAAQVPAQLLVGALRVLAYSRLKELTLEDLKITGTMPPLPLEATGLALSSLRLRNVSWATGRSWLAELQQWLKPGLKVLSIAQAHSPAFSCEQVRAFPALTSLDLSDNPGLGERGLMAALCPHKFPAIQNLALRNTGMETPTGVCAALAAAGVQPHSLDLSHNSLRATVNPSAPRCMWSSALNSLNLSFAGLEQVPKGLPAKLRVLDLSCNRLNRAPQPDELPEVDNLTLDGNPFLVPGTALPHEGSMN
Experimental: (§1) FIG. 13. PG Inhibits CD14 binding to solid phase LPS. (A) Various types of PG were coated onto microtiter plates, and incubated with CD14 (1 μg/ml) at 37° C. for 1 h. […] Types of PG shown on the graph are: dilauroylphosphatidylglycerol (DLPG), dimyristoyl-phosphatidylglycerol (DMPG), dipalmitoylphosphatidylglycerol (DPPG), and 16:0/18:1; palmitoyl-oleoyl-phosphatidylglycerol (POPG). […] The binding of CD14 to LPS was detected using anti-CD14 monoclonal antibody. The ELISA based absorbance of CD14 bound to LPS was defined as 100%.

human CD14 = biological target: T2, human CD14 (Homo sapiens, UniProt P08571); experiment: CD14 binding to solid phase phospholipids (ELISA); conditions: for direct binding of CD14 to molecular species of PG: CD14 1 μg/ml, POPG = 100%; for binding of CD14 to solid phase lipid: varying CD14, 37° C. 1 h
T2 construct: purchased Cell Sciences Inc. (Canton, Mass.)
T2 sequence (P08571 20-345): T1 sequence (P08571 20-345)
Experimental: FIG. 12. CD14 binds to solid phase lipids. […] Nonspecific binding was blocked with 20 mM Tris buffer (pH 7.4) containing 0.15 M NaCl, 5 mM CaCl2 (in the upper panel) or 2 mM EGTA (in the lower panel), and 5% (wt/vol) BSA (buffer A).
as §1
The wells were then washed with 20 mM Tris buffer (pH 7.4) containing 0.15 M NaCl and 5 mM CaCl2 or 2 mM EGTA (buffer B), and 1 μg/ml anti-human CD14 IgG or anti-His antibody (50 μl/well) in buffer A was added and incubated overnight at 4° C., followed by the incubation with horseradish peroxidase (HRP)-labeled anti-mouse IgG (1:5000) for 1 h. After washing the wells with buffer B, the peroxidase reaction was finally performed using o-phenylenediamine as a substrate. The binding of CD14 or MD-2 to phospholipids was detected by measuring absorbance at 490 nm.

[1] = system: MAPK, IkBα and MKP-1 in differentiated U937 cells; experiment: Western blot of LPS induced MAPK and IkBα phosphorylation and MKP-1 expression; type: cell-based, human; conditions: LPS 10 ng/ml; for LPS-induced MKP-1 expression / LPS-induced phosphorylation of p38, ERK, JNK and IkBα: liposomes 200 μg/ml; for LPS-induced phosphorylation of p38, ERK, JNK and IkBα: 15-60 min
Experimental: FIG. 4. POPG inhibits LPS induced MAPK and IkBα phosphorylation and MKP-1 expression. POPG liposomes (200 μg/ml) were added to monolayer cultures of differentiated U937 cells that received either no treatment or 10 ng/ml LPS. After incubating for the indicated time, cells were lysed using lysis buffer containing detergent, protease inhibitors and phosphatase inhibitors. Aliquots with 15 μg of protein from lysates were separated by SDS-PAGE and transferred onto nitrocellulose membranes. The amount of phosphorylation was detected using phospho-specific antibodies to p38MAPK, p42/p44 ERK, p46-p54 INK and phosphorylated IkBα. To determine equal loading of proteins between samples, the membranes were probed with rabbit polyclonal p46 INK, p42/p44 ERK, p38MAPK and IkBα antibodies. The expression of MKP-1 was detected with a polyclonal MKP-1 antibody.
FIG. 5. Quantification of POPG inhibition of LPS induced signaling. Western blot analysis as described in FIG. 4 was performed three or four times on separate samples and the intensity of phospho-p38, phospho-IkBα, phosphoERK, phospho JNK, phospho IkBα, total IkBα and MKP-1 was calculated using NIH Image J1.34 software.
FIG. 6. Molecular specificity in POPG action. Liposomes composed of POPC, DPPG or POPG were added to monolayer cultures of differentiated U937 cells that received either no treatment or 10 ng/ml LPS, as indicated. After 30 or 60 min cells were lysed and 15 μg of cellular protein from cultures was separated by SDS-PAGE and transferred onto nitrocellulose membranes. Phosphorylated and nonphosphorylated proteins were detected as described in FIG. 4.
FIG. 7. Comparative quantification of lipid dependent antagonism of LPS signaling. Western blot analysis was performed as described in FIG. 6 in three independent experiments. The intensity of the phosphorylated (p38, ERK, JNK and IkBα) and nonphosphorylated (total IkBα and MKP-1) proteins of interest was measured using NIH Image 0.1.34 software. Significance—*p<0.05, ** p<0.01.
Monolayers of unstimulated or stimulated macrophages were lysed on ice with 250 μl of ice-cold lysis buffer [50 mM Tris.HCl, pH 8.0, containing 137 mM NaCl, 10% (vol/vol) glycerol, 1% (vol/vol) Nonidet P-40, 1 mM NaF, 10 μg/ml leupeptin, 10 μg/ml aprotinin, 2 mM Na3VO4, and 1 mM phenylmethylsulfonyl fluoride (29). Insoluble nuclear material was pelleted by centrifugation at 14,000×g for 10 min at 4° C. and the supernatants were collected. 15 μg of protein from lysates was separated by SDS-PAGE and transferred onto nitrocellulose membranes (30). The blots were then washed in Tris-Tween-buffered saline [TTBS, 20 mM Tris-HCl buffer, pH 7.6, containing 137 mM NaCl and 0.05% (vol/vol) Tween 20], blocked with 5% (wt/vol) nonfat dry milk for 1 hour, and probed according to the method described by Towbin et. al. (30) with phospho-specific antibodies to p46-p54 JNK, p42/p44 ERK, and p38MAPK, or IkBα or with a polyclonal MKP-1 or IkBα antibodies in 5% (wt/vol) BSA dissolved in TTBS. With the use of horseradish peroxidase-conjugated secondary anti-rabbit or anti-mouse antibody, bound antibodies were detected by enhanced chemiluminescence (ECL plus, Amersham Biosciences, Piscataway, N.J.). To determine loading of proteins between samples, the membranes were probed with rabbit polyclonal p46 JNK, p42/p44 ERK, and p38MAPK antibodies.

Row | Molecule | inhibition of CD14 binding to solid phase LPS (CD14 binding to LPS) | direct binding of CD14 to molecular species of PG (human CD14) | binding of CD14 relative to the levels of POPG binding (human CD14; 1.25 nmole lipid per well) | LPS-induced MKP-1 expression [1] | LPS-induced phosphorylation of p38, ERK, JNK and IkBα [1] | LPS-induced reduction (degradation) of steady state IkBα ([1]; POPG 200 μg/ml) | binding of CD14 to solid phase lipid (human CD14; 1.25 nmole lipid per well)
1 | CCCCCCCCCCCCCC(=O)OCC(COP(=O)(O)OCC(O)CO)OC(=O)CCCCCCCCCCCCC (centres unmarked) [DMPG, dimyristoyl-phosphatidylglycerol] | most effective inhibitors | strongest direct binding interactions | – | – | – | – | –
2 | CCCCCCCCCCCCCCCC(=O)OC[C@H](COP(=O)([O-])OCC[N+](C)(C)C)OC(=O)CCCCCCCCCCCCCCC [DPPC, dipalmitoyl-phosphatidylcholine, reference compound] | – | – | approximately 30% | – | – | – | –
3 | CCCCCCCCCCCCCCCC(=O)OCC(COP(=O)(O)OCC(O)CO)OC(=O)CCCCCCCCCCCCCCC (centres unmarked) [DPPG, dipalmitoyl-phosphatidylglycerol, reference compound] | weakly competes | nearly the same extent as POPG and DMPG | – | neither POPC nor DPPG exerted a significant effect | neither POPC nor DPPG exerted a significant effect | – | –
4 | CCCCCCCC/C=C\CCCCCCCC(=O)O[C@H](COC(=O)CCCCCCCCCCCCCCC)COP(=O)(O)OCC(O)CO (some centres unmarked) [POPG, palmitoyl-oleoyl-phosphatidylglycerol] | almost completely inhibits; also recorded: most effective inhibitors | strongest direct binding interactions | – | blocked the synthesis; also recorded: reduced to control levels; also recorded: potently inhibited | reduced; also recorded: eliminated the phosphorylation; also recorded: significantly reduces; also recorded: potently inhibited | abrogated the reduction; also recorded: remained constant | strongly bound
5 | phosphatidylinositol [PI] | fails to compete | – | – | reduced | reduced | – | strongly bound
